{"source": "patent US5246830A", "about": "“Enzymatic process for the determination of β-lactam antibiotics” (Ucb Bioproducts, S.A., priority 1990, dated 1993)", "format_in_all_cases": "biochemical", "key": {"[1]": {"target": "T1, enzyme R39 (soluble D-alanyl-D-alanine carboxypeptidase produced by Actinomadura R39) (Actinomadura sp. R39, UniProt P39045)", "T1 construct": "added to milk or serum samples", "T1 sequence (P39045 50-515)": "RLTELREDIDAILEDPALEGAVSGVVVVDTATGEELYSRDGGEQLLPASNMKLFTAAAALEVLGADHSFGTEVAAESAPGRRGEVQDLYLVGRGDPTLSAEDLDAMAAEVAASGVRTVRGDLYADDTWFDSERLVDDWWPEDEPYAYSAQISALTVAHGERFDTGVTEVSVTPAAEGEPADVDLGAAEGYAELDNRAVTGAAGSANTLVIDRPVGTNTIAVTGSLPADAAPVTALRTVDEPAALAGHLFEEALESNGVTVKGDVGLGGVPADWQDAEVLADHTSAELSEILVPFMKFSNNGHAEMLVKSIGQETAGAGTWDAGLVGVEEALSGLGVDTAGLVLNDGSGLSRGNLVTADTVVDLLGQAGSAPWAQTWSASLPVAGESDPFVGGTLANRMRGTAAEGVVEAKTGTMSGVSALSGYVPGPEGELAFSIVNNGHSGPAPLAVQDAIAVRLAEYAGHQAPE", "assay": "Enzymatic determination of penicillin G in 3 ml milk samples (Example 3)", "conditions": "for Coloration: 24 picomoles enzyme R39, 10 min + 5 min", "experimental": "The process is the same as in Example 1, except that:\nthe samples contain 3 ml of milk (instead of 50 μl);\n24 picomoles (instead of 1.5 picomole) of enzyme R39 dissolved in 150 μl of 0.5M Hepes buffer (pH=8.0) and 600 μl of an aqueous solution containing 100 mg/ml of D-alanine are added to each sample;\nthe first incubation lasts 10 minutes (instead of 4 minutes);\n120 μl (instead of 5 μl) of the aqueous solution of [(N-benzoyl-D-alanyl)thio]-acetic acid and 120 μl of a phosphate buffer solution (pH=8.0) containing 5 mg/ml of 5,5'-dithiobis(2-nitrobenzoic) acid are then added, and\n(§1) the second incubation lasts 5 minutes (instead of 1 minute)."}, "[2]": {"target": "T1, enzyme R39 (soluble D-alanyl-D-alanine carboxypeptidase produced by Actinomadura R39)", "assay": "Enzymatic determination of penicillin G in 50 μl milk samples, visual coloration (Example 1)", "conditions": "1.5 picomole enzyme R39, 4 min + 1 min at 47° C.", "experimental": "A series of 50 μl milk samples is prepared containing known concentrations of penicillin G, and two 50 μl milk samples free from penicillin G (blank and control).\n(§2) 1.5 picomole of enzyme R39, dissolved in 10 μl of 0.5M Hepes buffer (pH=8.0) containing 0.5M NaCl and 0.25M MgCl2, and 20 μl of an aqueous solution containing 50 mg/ml of D-alanine are added to each sample (control sample+samples containing penicillin G). In the blank sample, enzyme R39 dissolved in Hepes buffer is replaced by 10 μl of 0.5M Hepes buffer (pH=8.0), containing 0.5M NaCl and 0.25M MgCl2 (Hepes=4-hydroxyethyl-1-piperazineethanesulfonic acid). The mixture is incubated at 47° C. for 4 minutes.\n(§3) Next, 5 μl of an aqueous solution containing 5 mg/ml [(N-benzoyl-D-alanyl)thio]-acetic acid and 10 μl of a phosphate buffer solution (pH=8.0; KH2 PO4 +K2 HPO4) containing 2 mg/ml of 5,5'-dithiobis(2-nitrobenzoic) acid are added and the mixture is incubated at 47° C. for 1 minute.\nThe colorations obtained in the various samples are then observed."}, "[3]": {"target": "T1, enzyme R39 (soluble D-alanyl-D-alanine carboxypeptidase produced by Actinomadura R39)", "assay": "Enzymatic determination of penicillin G in milk with various D-amino acids or glycine as activators (Example 5)", "experimental": "The process is the same as in example 3, except that the aqueous solution containing 100 mg/ml of D-alanine (test I) is respectively replaced by an aqueous solution containing 100 mg/ml of D-phenylalanine (test II), of D-serine (test III), of D-histidine (test IV), of D-methionine (test V), of D-2-aminobutyric acid (test VI), or by an aqueous solution containing 200 mg/ml of glycine (test VII)."}, "[4]": {"target": "T1, enzyme R39 (soluble D-alanyl-D-alanine carboxypeptidase produced by Actinomadura R39)", "assay": "Enzymatic determination of penicillin G in milk, substrate and reagent combined in a tablet (Example 8)", "conditions": "substrate + reagent as tablet", "experimental": "The process is the same as in example 3. However, after the first incubation for a period of 10 minutes, a tablet is added which contains, 600 μg of [(N-benzoyl-D-alanyl)thio]-acetic acid and 600 μg of 5,5'-dithiobis(2-nitrobenzoic) acid.\nThis tablet has the following overall composition (in % by weight): […]"}, "[5]": {"target": "T1, enzyme R39 (soluble D-alanyl-D-alanine carboxypeptidase produced by Actinomadura R39)", "assay": "Enzymatic determination of penicillin G in serum, spectrophotometer at 410 nm (Example 7)", "design": "Optical density (at 410 nm): scale not given here", "conditions": "for Optical density (at 410 nm): blank subtracted, supernatant diluted 10 times", "experimental": "The procedure of example 3 is followed, but the 3 ml milk samples are replaced by 3 ml serum samples containing known concentrations of penicillin G.\nMoreover, after the second incubation lasting 5 minutes, the samples are centrifuged and the supernatants are diluted 10 times with water.\nThen, the optical density is measured with a spectrophotometer at 410 nm.\nThe values of the optical density mentioned in Table VII are obtained by subtracting the optical density value found for the blank sample from the optical density values found respectively for the control sample and for the other samples."}, "[6]": {"target": "T1, enzyme R39 (soluble D-alanyl-D-alanine carboxypeptidase produced by Actinomadura R39)", "assay": "Enzymatic determination of penicillin G in milk with 0.4 picomole enzyme R39 (Example 2)", "conditions": "for Coloration: 0.4 picomole enzyme R39, 10 min + 5 min", "experimental": "as §2, §3\nThe process is exactly the same as in Example 1 except that:\n0.4 picomole of enzyme R39 (instead of 1.5 picomole) is added to the samples;\nthe first incubation lasts 10 minutes (instead of 4 minutes) and\nas §1"}, "[7]": {"target": "T1, enzyme R39 (soluble D-alanyl-D-alanine carboxypeptidase produced by Actinomadura R39)", "assay": "Enzymatic determination of penicillin G in milk with [(N-phenylacetyl-D-alanyl)thio]-acetic acid as substrate (Example 4)", "conditions": "substrate [(N-phenylacetyl-D-alanyl)thio]-acetic acid", "experimental": "The process is the same as in example 3, except that, after the first incubation, 120 μl of an aqueous solution containing 5 mg/ml of [(N-phenylacetyl-D-alanyl)thio]-acetic acid are added."}, "[8]": {"conditions": "penicillin G 0.003 I.U./ml in 3 ml milk"}, "[9]": {"conditions": "penicillin G 0.006 I.U./ml in 3 ml milk"}, "[10]": {"conditions": "penicillin G 0.004 I.U./ml in 50 μl milk"}, "[11]": {"conditions": "penicillin G 0.008 I.U./ml in 50 μl milk"}}}
{"smiles": "CC1(C)S[C@@H]2[C@H](NC(=O)Cc3ccccc3)C(=O)N2[C@H]1C(=O)O", "note": "[penicillin G, benzyl penicillin (penicillin G)]", "values": [{"measurement": "penicillin G concentration in milk detected visually in large sample volumes", "setting": "[1]; 3 ml milk, in 15 minutes", "result": 0.004, "unit": "I.U. per ml"}, {"measurement": "Coloration", "setting": "[1]; penicillin G 0.002 I.U./ml in 3 ml milk", "result": "medium yellow"}, {"measurement": "Coloration", "setting": "[1]; [8]", "result": "pale yellow"}, {"measurement": "Coloration", "setting": "[1]; penicillin G 0.004 I.U./ml in 3 ml milk", "result": "white"}, {"measurement": "Coloration", "setting": "[1]; [9]", "result": "white"}, {"measurement": "Coloration", "setting": "[2]; [10]", "result": "intense yellow"}, {"measurement": "Coloration", "setting": "[2]; [11]", "result": "medium yellow"}, {"measurement": "Coloration", "setting": "[2]; penicillin G 0.012 I.U./ml in 50 μl milk", "result": "pale yellow"}, {"measurement": "Coloration", "setting": "[2]; penicillin G 0.016 I.U./ml in 50 μl milk", "result": "white"}, {"measurement": "Coloration", "setting": "[2]; penicillin G 0.020 I.U./ml in 50 μl milk", "result": "white"}, {"measurement": "Coloration", "setting": "[2]; penicillin G 0.025 I.U./ml in 50 μl milk", "result": "white"}, {"measurement": "Coloration", "setting": "[3]; penicillin G 0.003 I.U./ml in 3 ml milk, test I, activator D-alanine 100 mg/ml", "result": "pale yellow"}, {"measurement": "Coloration", "setting": "[3]; penicillin G 0.003 I.U./ml in 3 ml milk, test II, activator D-phenylalanine 100 mg/ml", "result": "pale yellow"}, {"measurement": "Coloration", "setting": "[3]; penicillin G 0.003 I.U./ml in 3 ml milk, test III, activator D-serine 100 mg/ml", "result": "pale yellow"}, {"measurement": "Coloration", "setting": "[3]; penicillin G 0.003 I.U./ml in 3 ml milk, test IV, activator D-histidine 100 mg/ml", "result": "pale yallow"}, {"measurement": "Coloration", "setting": "[3]; penicillin G 0.003 I.U./ml in 3 ml milk, test V, activator D-methionine 100 mg/ml", "result": "pale yellow"}, {"measurement": "Coloration", "setting": "[3]; penicillin G 0.003 I.U./ml in 3 ml milk, test VI, activator D-2-aminobutyric acid 100 mg/ml", "result": "pale yellow"}, {"measurement": "Coloration", "setting": "[3]; penicillin G 0.003 I.U./ml in 3 ml milk, test VII, activator glycine 200 mg/ml", "result": "pale yellow"}, {"measurement": "Coloration", "setting": "[3]; penicillin G 0.006 I.U./ml in 3 ml milk, test I, activator D-alanine 100 mg/ml", "result": "white"}, {"measurement": "Coloration", "setting": "[3]; penicillin G 0.006 I.U./ml in 3 ml milk, test II, activator D-phenylalanine 100 mg/ml", "result": "white"}, {"measurement": "Coloration", "setting": "[3]; penicillin G 0.006 I.U./ml in 3 ml milk, test III, activator D-serine 100 mg/ml", "result": "white"}, {"measurement": "Coloration", "setting": "[3]; penicillin G 0.006 I.U./ml in 3 ml milk, test IV, activator D-histidine 100 mg/ml", "result": "white"}, {"measurement": "Coloration", "setting": "[3]; penicillin G 0.006 I.U./ml in 3 ml milk, test V, activator D-methionine 100 mg/ml", "result": "white"}, {"measurement": "Coloration", "setting": "[3]; penicillin G 0.006 I.U./ml in 3 ml milk, test VI, activator D-2-aminobutyric acid 100 mg/ml", "result": "white"}, {"measurement": "Coloration", "setting": "[3]; penicillin G 0.006 I.U./ml in 3 ml milk, test VII, activator glycine 200 mg/ml", "result": "white"}, {"measurement": "Coloration", "setting": "[4]; penicillin G 0.002 (in 1.U.ml) in 3 ml milk", "result": "medium yellow"}, {"measurement": "Coloration", "setting": "[4]; penicillin G 0.003 (in 1.U.ml) in 3 ml milk", "result": "pale yellow"}, {"measurement": "Coloration", "setting": "[4]; penicillin G 0.004 (in 1.U.ml) in 3 ml milk", "result": "white"}, {"measurement": "Coloration", "setting": "[4]; penicillin G 0.006 (in 1.U.ml) in 3 ml milk", "result": "white"}, {"measurement": "Optical density (at 410 nm)", "setting": "[5]; penicillin G 0.002 I.U./ml in 3 ml serum", "result": 226}, {"measurement": "Optical density (at 410 nm)", "setting": "[5]; penicillin G 0.003 I.U./ml in 3 ml serum", "result": 175}, {"measurement": "Optical density (at 410 nm)", "setting": "[5]; penicillin G 0.004 I.U./ml in 3 ml serum", "result": 49}, {"measurement": "Optical density (at 410 nm)", "setting": "[5]; penicillin G 0.006 I.U./ml in 3 ml serum", "result": 15}, {"measurement": "penicillin G concentration determined quantitatively with a spectrophotometer", "setting": "[5]; serum", "result": 0.002, "unit": "I.U./ml"}, {"measurement": "penicillin G concentration in milk detected by reference to a color chart", "setting": "[6]; color chart, 15 minutes", "result": 0.002, "unit": "I.U./ml"}, {"measurement": "Coloration", "setting": "[6]; penicillin G 0.001 I.U./ml in 50 μl milk", "result": "intense yellow"}, {"measurement": "Coloration", "setting": "[6]; penicillin G 0.002 I.U./ml in 50 μl milk", "result": "medium yellow"}, {"measurement": "Coloration", "setting": "[6]; penicillin G 0.003 I.U./ml in 50 μl milk", "result": "pale yellow"}, {"measurement": "Coloration", "setting": "[6]; [10]", "result": "white"}, {"measurement": "Coloration", "setting": "[6]; penicillin G 0.005 I.U./ml in 50 μl milk", "result": "white"}, {"measurement": "Coloration", "setting": "[6]; [11]", "result": "white"}, {"measurement": "Coloration", "setting": "[6]; penicillin G 0.010 I.U./ml in 50 μl milk", "result": "white"}, {"measurement": "Coloration", "setting": "[7]; [8]", "result": "pale yellow"}, {"measurement": "Coloration", "setting": "[7]; [9]", "result": "white"}]}
